# Measured values published in patent US12129221B2, “Difluoro phenyl amide RIP1 inhibitor” (SIRONAX LTD, priority 2018, dated 2024).
# Entries after “also recorded” stand apart in the source; their conditions may differ. Read-outs that look alike come from different tables or passages of the source.
# Experiments:
# [1] = test system: mouse EAE model of multiple sclerosis; test: Mouse EAE model of multiple sclerosis; type: in vivo, C57/BL6 mice
# Excerpt: A mouse EAE model of multiple sclerosis was established by immunizing C57/BL6 mice with MOG35-55 (amino acids 35-55 of myelin oligodendrocyte glycoprotein) to induce autoimmune reaction to the myelin of the CNS. Immune reaction causes damage to the myelin, and subsequently the neurons, resulting in animal paralysis.
# SIR1-365 was delivered by food at 10 g/kg and FTY-720 was used as a positive control. Mice were feed with FTY-720 containing drinking water or with SIR1-365 containing chow 2 days before 1st immunization for 28 consecutive days. Scoring started at Day 8 post-1st immunization.
# The results of pathological studies indicated myelin destruction of the spinal cord was protected by SIR1-365. Three different spinal cord regions were sectioned and stained with hematoxylin and eosin (H&E), spinal cord damages were scored and quantified. Feeding with SIR1-365 containing food protected spinal cord damage induced by auto-immune reaction in EAE model.
# [2] = Liver microsome stability, monkey; type: in vitro ADME; settings: monkey, liver microsomes
# Excerpt: (§1) Representative Metabolic Stability Data I; +, Extrapolated.
# HT-29 = test: EC50 in HT-29; type: cell-based; settings: Homo sapiens
# [3] = Liver microsome stability, mini-pig; type: in vitro ADME; parameters: key to mini-pig T1/2 (min): +, Extrapolated; settings: extrapolated
# Excerpt: as §1
smiles,measurement,setting,value
"CCC(C)(C)C(=O)N(O)Cc1cc(F)cc(F)c1 [Compound 13, N-(3,5-difluorobenzyl)-N-hydroxy-2,2-dimethylbutanamide]",EAE-induced myelin / spinal cord damage and animal paralysis,"[1]; 10 g of compound per kilogram food, H&E stained spinal cord sections, listed as SIR1-365",significantly reduced EAE-induced myelin damage and animal paralysis; also recorded: substantial reduction of myelin damage
same,disease score in EAE mice,"[1]; delivered by food at 10 g/kg, 28 consecutive days",significantly reduced the disease score
same,half-life,"[2]; comparison table with WO2016/101885 compounds, read-out: Monkey Liver Microsome T1/2",5 min
same,half-life,"[2]; liver microsome stability, read-out: Monkey T1/2",4.72 min
same,EC50,HT-29,28 nM
same,mini-pig T1/2 (min),[3],+
